Data: paper PMC8529873, “Carbohydrate-Based NK1R Antagonists with Broad-Spectrum Anticancer Activity” (Journal of Medicinal Chemistry, 2021)
Like-named read-outs stand apart in the source and are kept apart here. Where no end group is shown, it is not given here.

How the values were obtained:
[1] = tested on: HaCaT (human skin normal); experiment: Resazurin cell viability assay, 96 h, HaCaT; type: cell-based; settings: read-out: IC50 (mean ± SEM) HaCaT
Experimental: Thirteen human cancer cells lines and one human nonmalignant cell line were treated with 14α for 96 h. We used longer exposure times because some of these cell lines have long cell cycles (24–48 h); this longer exposure time allows the cells to pass several cycles in the presence of 14α. Cell viability was estimated with the resazurin assay. HaCaT human skin nonmalignant cells were used to study selectivity; these cells are derived from normal adult tissue and have a division rate similar to that of cancer cells. One key limitation of most anticancer drugs is that, in addition to targeting cancer cells, they also target nonmalignant cells with similar division rates. […] These cell lines were at least 3 times more sensitive than the normal cell line to 14α treatment. HepG2 (hepatocarcinoma) and KATO III (gastric cancer) were at least 9-fold more vulnerable to 14α than HaCaT nonmalignant cells.
Cell viability was estimated with the 3-(4,5-dimethylthiazol-2-yl)-2,5-diphenyltetrazolium bromide (MTT) assay or the resazurin assay. […]
For the resazurin assay, after treatment, the medium was removed and 150 μL of resazurin solution (20 μg/mL in medium) was added to each well for 3–6 h. The OD of each well was measured at 540 and 620 nm on a multiwell plate spectrophotometer reader.

PC-3 (prostate cancer) = experiment: Resazurin cell viability assay, 96 h, PC-3; type: cell-based, human
Text: (§1) Cell viability was estimated with the resazurin assay. HaCaT human skin nonmalignant cells were used to study selectivity; these cells are derived from normal adult tissue and have a division rate similar to that of cancer cells.
(§2) Cell viability was estimated with the 3-(4,5-dimethylthiazol-2-yl)-2,5-diphenyltetrazolium bromide (MTT) assay or the resazurin assay. Both assays are redox-based colorimetric techniques based on the capability of viable cells to reduce the yellow product MTT or the blue reagent resazurin into a purple formazan dye or a pink-colored product, respectively. The number of live cells is directly proportional to the amount of the final product created. Exponentially growing cells were seeded in 96-well plates and were allowed to grow during 24 h. The cells were then treated with several concentrations of the tested compounds for 48–96 h (the incubation periods are specified in the figures and table legends) before measuring the cell viability using the MTT assay or the resazurin assay.
(§3) The OD of each well was measured at 540 and 620 nm on a multiwell plate spectrophotometer reader.

T24 (bladder cancer) = experiment: Resazurin cell viability assay, 96 h, T24; type: cell-based, human
Text: as §1, §2, §3

[2] = tested on: A549 human lung cancer cells; experiment: MTT cytotoxicity assay, 48 h, A549 cells; type: cell-based; settings: for IC50: read-out: IC50 (mean ± SEM) A549 (cancer)
Text: (§4) First, we evaluated the cytotoxicity of our carbohydrate derivatives against MRC-5 human nonmalignant lung cells and A549 human lung cancer cells using the 3-(4,5-dimethylthiazol-2-yl)-2,5-diphenyltetrazolium bromide (MTT) assay under the same experimental conditions.
as §2
(§5) Then, 80 μL of 20% sodium dodecyl sulfate (SDS) in 20 mM HCl was added to dissolve the insoluble purple formazan product and plates were incubated for 15 h at 37 °C. The optical density (OD) of each well was measured at 540 nm with a multiwell plate spectrophotometer reader to quantify cell survivals.
In both assays, results were expressed as the percentage of cell viability in relation to untreated cells (controls). All data were averaged from two to five independent experiments and were expressed as the means ± standard error of the mean (SEM). For statistical analysis, the t-test (paired, two-tailed) was used. A p value >0.05 is not considered statistically significant and is not represented by any symbol, a p value <0.05 is considered statistically significant and is indicated with an asterisk (*), a p value <0.01 is indicated with a double asterisk (**), and a p value <0.001 is indicated with a triple asterisk (***).

HepG2 (hepatocarcinoma) = experiment: Resazurin cell viability assay, 96 h, HepG2; type: cell-based, human
Text: as §1, §2, §3

HNO97 (tongue cancer) = experiment: Resazurin cell viability assay, 96 h, HNO97; type: cell-based, human
Text: as §1, §2, §3

[3] = tested on: MDA-MB-231 (triple-negative breast cancer); experiment: Resazurin cell viability assay, 96 h, MDA-MB-231; type: cell-based, human; settings: IC50 HaCaT / IC50 MDA-MB-231
Text: as §1, §2, §3

HT29 (colorectal cancer) = experiment: Resazurin cell viability assay, 96 h, HT29; type: cell-based, human
Text: as §1, §2, §3

MeWo (melanoma; BRAF WT) = experiment: Resazurin cell viability assay, 96 h, MeWo; type: cell-based, human
Text: as §1, §2, §3

[4] = tested on: MRC-5 human nonmalignant lung cells; experiment: MTT cytotoxicity assay, 48 h, MRC-5 cells; type: cell-based
Text: as §4
Cell viability was estimated with the 3-(4,5-dimethylthiazol-2-yl)-2,5-diphenyltetrazolium bromide (MTT) assay or the resazurin assay. Both assays are redox-based colorimetric techniques based on the capability of viable cells to reduce the yellow product MTT or the blue reagent resazurin into a purple formazan dye or a pink-colored product, respectively. The number of live cells is directly proportional to the amount of the final product created. Exponentially growing cells were seeded in 96-well plates and were allowed to grow during 24 h. […]
as §5
In both assays, results were expressed as the percentage of cell viability in relation to untreated cells (controls). All data were averaged from two to five independent experiments and were expressed as the means ± standard error of the mean (SEM). […]

Sk-OV-3 (ovarian cancer) = experiment: Resazurin cell viability assay, 96 h, Sk-OV-3; type: cell-based, human; settings: IC50 HaCaT / IC50 Sk-OV-3
Text: as §1, §2, §3

[5] = tested on: AN3Ca (endometrial adenocarcinoma); experiment: Resazurin cell viability assay, 96 h, AN3Ca; type: cell-based, human
Text: as §1, §2, §3

GAMG (glioblastoma) = experiment: Resazurin cell viability assay, 96 h, GAMG; type: cell-based, human
Text: as §1, §2, §3

[6] = tested on: KATO III (gastric cancer); experiment: Resazurin cell viability assay, 96 h, KATO III; type: cell-based, human
Text: as §1, §2, §3

[7] = tested on: Sk-Br-3 (HER2-positive breast cancer); experiment: Resazurin cell viability assay, 96 h, Sk-Br-3; type: cell-based, human
Text: as §1, §2, §3

[8] = tested on: A64-CLS (submaxillary gland adenoma); experiment: Resazurin cell viability assay, 96 h, A64-CLS; type: cell-based, human
Text: as §1, §2, §3

A549 cancer cells = experiment: Cytotoxicity of 14α in presence or absence of antioxidants (ROS involvement); type: cell-based, human; settings: A549, 48 h
Experimental: It is known that cancer cells have higher basal levels of reactive oxygen species (ROS) than normal cells, making them more sensitive to exogenous induction of ROS.[33] […] Therefore, we decided to study whether the generation of ROS was involved in the selective cytotoxic effect of 14α. A549 cancer cells were treated with 14α for 48 h in the presence or absence of three antioxidants: N-acetylcysteine (antioxidant activity through the glutathione system), catalase (hydrogen peroxide-degrading enzyme), and Mn(III) tetrakis(1-methyl-4-pyridyl)porphyrin pentachloride (MnTMPyP; superoxide anion scavenger).

A549 cells [9] = experiment: Glycolysis inhibition: glucose consumption and lactate production; type: cell-based, human; settings: A549 cells exposed for 8 h
Experimental: Our next aim was to study the possible mechanisms involved in the selective anticancer activity of 14α. Because tumor cells rely on glycolysis for survival more than normal cells,[32] we evaluated if our compound behaved as a glycolysis inhibitor. Since glycolysis consumes glucose and produces lactate, we measured the concentrations of glucose and lactate in untreated A549 cells and in cells exposed for 8 h to 14α and to the known glycolysis inhibitor dichloroacetate.
Glycolysis inhibition was assessed by measuring concentrations of glucose ([…] of glycolysis) and lactate (final product of glycolysis) in control and treated cells. Briefly, 4 × 10^5 cells were seeded into 24-well plates. After 10 h, the medium of cells was renewed and drugs were added. Cells were exposed to the tested compounds for 8 h, and glucose and lactate concentrations were determined in cell supernatants using the Accutrend Plus analyzer together with Accutrend glucose strips and BM-Lactate strips (Roche Diagnostics). […] Results are expressed as a percentage of lactate production and percentage of glucose consumption in relation to untreated cells and are shown as the means ± SEM of two independent experiments.

A549 cells [10] = experiment: Cell proliferation after SP, Resazurin assay, 48 h; type: cell-based, human; settings: SP 2.5 - 200 nM
Experimental: Competition Experiments of Cytotoxic effect of in presence of SP. 14α
First, we treated A549 cells with several concentrations of SP (2.5 - 200 nM) for 48 h and we evaluated cell proliferation with the Resazurin assay. Although it has been reported that A549 […]
of SP. The highest SP concentration tested (200 nM) was added 1 h before 32 µM of 14α or Cisplatin. After a 48 h treatment period, the cell viability was determined with the Resazurin […]
Figure S-4. Evaluation of cytotoxic activity of 14α derivative and Cisplatin on A549 lung cancer cells and HaCaT normal cells in presence of SP. Results are representative of at least three independent experiments. Values are expressed in mean with SEM.
1 O'Connor, T.M.; O'Connell, J.; O'Brien, D.I.; Bennett, M.W.; Goode, T.; Burke, L.; Bredin, C.P.; Shanahan,
(1 picture or pasted object on this page, not shown here)

N.N.[Cl][Pt][Cl] [Cisplatin]
IC50 [1]: 2.1 ± 0.7 µM | selectivity index (vs HaCaT; mean ± SEM) PC-3 (PC-3 (prostate cancer); IC50 HaCaT / IC50 PC-3, Resazurin): 0.7 ± 0.2 | IC50 (PC-3 (prostate cancer); Resazurin assay, read-out: IC50 (mean ± SEM) PC-3): 3.1 ± 0.2 µM | selectivity index (vs HaCaT; mean ± SEM) T24 (T24 (bladder cancer); IC50 HaCaT / IC50 T24, Resazurin): 1.3 ± 0.0 | IC50 (T24 (bladder cancer); Resazurin assay, read-out: IC50 (mean ± SEM) T24): 1.6 ± 0.5 µM | IC50 ([2]; MTT assay): 13.5 ± 2.7 µM | selectivity index (IC50 MRC-5 / IC50 A549) ([2]; mean of indices of each individual experiment, MTT): 8.6 ± 3.9 | selectivity index (vs HaCaT; mean ± SEM) HepG2 (HepG2 (hepatocarcinoma); IC50 HaCaT / IC50 HepG2, Resazurin): 1.2 ± 0.2 | IC50 (HepG2 (hepatocarcinoma); Resazurin assay, read-out: IC50 (mean ± SEM) HepG2): 1.8 ± 0.2 µM | selectivity index (vs HaCaT; mean ± SEM) HNO97 (HNO97 (tongue cancer); IC50 HaCaT / IC50 HNO97, Resazurin): 0.8 ± 0.1 | IC50 (HNO97 (tongue cancer); Resazurin assay, read-out: IC50 (mean ± SEM) HNO97): 2.5 ± 0.4 µM | selectivity index (vs HaCaT; mean ± SEM) MDA-MB-231 [3]: 0.3 ± 0.1 | selectivity index (vs HaCaT; mean ± SEM) HT29 (HT29 (colorectal cancer); IC50 HaCaT / IC50 HT29, Resazurin): 0.4 ± 0.1 | IC50 (HT29 (colorectal cancer); Resazurin assay, read-out: IC50 (mean ± SEM) HT29): 4.9 ± 0.8 µM | selectivity index (vs HaCaT; mean ± SEM) MeWo (MeWo (melanoma; BRAF WT); IC50 HaCaT / IC50 MeWo, Resazurin): 1.0 ± 0.1 | IC50 (MeWo (melanoma; BRAF WT); Resazurin assay, read-out: IC50 (mean ± SEM) MeWo): 2.2 ± 1.1 µM | IC50 ([4]; read-out: IC50 (mean ± SEM) MRC-5 (normal)): 99.2 ± 37 µM | selectivity index (vs HaCaT; mean ± SEM) Sk-OV-3 (Sk-OV-3 (ovarian cancer)): 0.5 ± 0.2 | selectivity index (vs HaCaT; mean ± SEM) AN3Ca ([5]; IC50 HaCaT / IC50 AN3Ca, Resazurin): 2.1 ± 1.2 | IC50 ([5]; Resazurin assay, read-out: IC50 (mean ± SEM) AN3Ca): 1.8 ± 1.4 µM | selectivity index (vs HaCaT; mean ± SEM) GAMG (GAMG (glioblastoma); IC50 HaCaT / IC50 GAMG, Resazurin): 0.7 ± 0.0 | IC50 (GAMG (glioblastoma); Resazurin assay, read-out: IC50 (mean ± SEM) GAMG): 3.2 ± 0.9 µM | selectivity index (vs HaCaT; mean ± SEM) KATO III ([6]; IC50 HaCaT / IC50 KATO III, Resazurin): 1.2 ± 0.5 | IC50 ([6]; Resazurin assay, read-out: IC50 (mean ± SEM) KATO III): 1.8 ± 0.2 µM | selectivity index (vs HaCaT; mean ± SEM) Sk-Br-3 ([7]; IC50 HaCaT / IC50 Sk-Br-3, Resazurin): 0.5 ± 0.1 | IC50 ([7]; Resazurin assay, read-out: IC50 (mean ± SEM) Sk-Br-3): 4.3 ± 0.9 µM | selectivity index (vs HaCaT; mean ± SEM) A64-CLS ([8]; IC50 HaCaT / IC50 A64-CLS, Resazurin): 0.5 ± 0.0 | IC50 ([8]; Resazurin assay, read-out: IC50 (mean ± SEM) A64-CLS): 4.5 ± 1.2 µM

C[C@@H](O[C@H]1O[C@@H]2CO[C@@H](c3ccccc3)O[C@@H]2[C@H](O)[C@H]1OCc1ccc(F)cc1)c1cc(C(F)(F)F)cc(C(F)(F)F)c1 [14α, (R)-{1-[3,5-Bis-(trifluoromethyl)phenyl]ethyl} (R)-(4,6-O-Benzylidene)-2-O-p-fluorobenzyl-α-D-galactopyranoside]
effect of antioxidants (N-acetylcysteine, catalase, MnTMPyP) on cytotoxicity (A549 cancer cells): None of these three antioxidants reduced the cytotoxicity | glucose consumption and lactate production (glycolysis inhibition) (A549 cells [9]): did not reduce glucose consumption or lactate production

substance P (RPKPQQFFGLM-NH2; ends and bridges not checked; also: 125I label, position not given here) [SP]
cell proliferation after addition of SP (A549 cells [10]): did not observe any increase in cell proliferation

C[C@@H](O[C@H]1OCCN(Cc2n[nH]c(=O)[nH]2)[C@H]1c1ccc(F)cc1)c1cc(C(F)(F)F)cc(C(F)(F)F)c1 [Aprepitant]
IC50 ([2]; Homo sapiens, A549, MTT assay): 18.3 ± 3.4 µM | IC50 ([4]; Homo sapiens, MRC5, read-out: IC50 (mean ± SEM) MRC-5 (normal)): 28.9 ± 6.8 µM
